# Data taken from patent US20210309978A1, “POLYNUCLEOTIDE SEQUENCE ENCODING A LOCAL SOURCED NOVEL ESTERASE” (ISTANBUL TEKNIK UNIVERSITESI, priority 2018, published 2021).
# Like-named read-outs stand apart in the source and are kept apart here.
# What was measured:
# esterase enzyme [1] = assay: Effect of solutions (solvents) on enzyme stability (24 hours incubation); format: biochemical, microflora of Ac1göl (Aci Lake); details: for Effect of solutions on stability, Activity (%) 15% Solution: enzyme incubated 24 hours in buffer containing 15% solution; for Effect of solutions on stability, Activity (%) 30% Solution: enzyme incubated 24 hours in buffer containing 30% solution
# Description: (§1) 6. […] The final concentration of the enzyme and substrate have been 1 μM and 1 mM respectively and absorbance measurements have been taken at 410 nm. The activity has been calculated by means of the below formula and one unit of activity has been defined as the enzyme amount which produces 1 μmol product in 1 minute.
# (§2) Activity (U/L)=[(ΔAbs/t)/(ε*d)]*106*Vt/Vs • ΔAbs=Absorbance change; t=time (minute); ε=extinction coefficient (M−1 cm−1); d=light path (cm); Vt=total reaction volume; Vs=enzyme volume used in reaction.
# (§3) Additionally, the effect of different solutions (hexane, chloroform, acetone, dimethyl formamide (DMF), dimethyl sulphoxide (DMSO), 2-propanol, butanol, 1-propanol, ethanol, methanol and glycerol) on the activity and stability of the enzyme have been measured. In the activity tests, 10% solution has been added into the reaction and in the stability tests the enzyme has been incubated for 24 hours in a buffer solution containing 15% and 30% solution.
# esterase enzyme [2] = assay: Effect of solutions (solvents) on enzyme activity; format: biochemical, microflora of Ac1göl (Aci Lake); details: 10% solution added into the reaction
# Description: as §1, §2, §3
# esterase enzyme [3] = assay: Effects of inhibitors and detergents on enzyme activity; format: biochemical, microflora of Ac1göl (Aci Lake)
# esterase enzyme [4] = assay: Effect of metals on enzyme activity; format: biochemical, microflora of Ac1göl (Aci Lake); details: for Metal tolerance, This study: the enzyme of the invention in presence of metal ion
# [5] = tested on: new true lipase isolated through metagenomic approach; details: literature enzyme in presence of metal ion; cited from earlier work
# [6] = tested on: heavy metal-resistant, thermophilic esterase from a Red Sea Brine Pool; details: literature enzyme in presence of metal ion; cited from earlier work
# [7] = tested on: Salt-Tolerant Esterase from the Deep-Sea Sediment of the South China Sea; details: literature enzyme in presence of metal ion; cited from earlier work
# [8] = tested on: thermophilic and halophilic esterase from Janibacter sp. R02; details: literature enzyme in presence of metal ion; cited from earlier work
compound,measurement,setting,value
1-propanol,"Effect of solutions on stability, Activity (%) 15% Solution",esterase enzyme [1],85.7 ± 2.6%
same,"Effect of solutions on stability, Activity (%) 30% Solution",esterase enzyme [1],23.3 ± 5.4%
same,"Effect of solutions on activity, Activity (%)",esterase enzyme [2],2.6 ± 2.4%
"O[C@H](CS)[C@H](O)CS (racemic) [DTT, dithiothreitol]",Activity (%) (1 mM inh.),esterase enzyme [3]; 1 mM inh.,36.7 ± 2.4%
same,Activity (%) (5 mM inh.),esterase enzyme [3]; 5 mM inh.,25.1 ± 0.8%
"CC(C)O [2-Propanol, 2-propanol]","Effect of solutions on stability, Activity (%) 15% Solution",esterase enzyme [1],104.3 ± 1.2%
same,"Effect of solutions on stability, Activity (%) 30% Solution",esterase enzyme [1],62.3 ± 4.3%
same,"Effect of solutions on activity, Activity (%)",esterase enzyme [2],21.4 ± 1.6%
"CC(C)=O [Acetone, acetone]","Effect of solutions on stability, Activity (%) 15% Solution",esterase enzyme [1],113.7 ± 2.5%
same,"Effect of solutions on stability, Activity (%) 30% Solution",esterase enzyme [1],85.2 ± 5.6%
same,"Effect of solutions on activity, Activity (%)",esterase enzyme [2],36 ± 4.9%
O=[N+]([O-])[O-].[Ag+] [AgNO3],Activity (%) (1 mM metal),esterase enzyme [4]; 1 mM metal,31.6 ± 6.5%
same,Activity (%) (5 mM metal),esterase enzyme [4]; 5 mM metal,0.0%
[Ag+] [Ag^+],"Metal tolerance, Glogauer et al, 2011",[5],8
same,"Metal tolerance, This study",esterase enzyme [4],32
O=S(=O)([O-])[O-].O=S(=O)([O-])[O-].O=S(=O)([O-])[O-].[Al+3].[Al+3] [Al2SO4],Activity (%) (1 mM metal),esterase enzyme [4]; 1 mM metal,91.2 ± 9.8%
same,Activity (%) (5 mM metal),esterase enzyme [4]; 5 mM metal,0.0%
[Al+3] [Al^3+],"Metal tolerance, Glogauer et al, 2011",[5],45
same,"Metal tolerance, This study",esterase enzyme [4],91
"CCCCCCCCCCCCCCCC[N+](C)(C)C.[Br-] [CTAB, cetrimonium bromide]",Activity (%) (1 mM inh.),esterase enzyme [3]; 1 mM inh.,91 ± 6.6%
same,Activity (%) (5 mM inh.),esterase enzyme [3]; 5 mM inh.,1.3 ± 0.3%
[Ca+2].[Cl-].[Cl-] [CaCl2],Activity (%) (1 mM metal),esterase enzyme [4]; 1 mM metal,130.2 ± 1.7%
same,Activity (%) (5 mM metal),esterase enzyme [4]; 5 mM metal,105.1 ± 1.4%
[Ca+2] [Ca^2+],"Metal tolerance, Mohamed et al, 2013",[6],95
same,"Metal tolerance, Zhang et al, 2017",[7],95
same,"Metal tolerance, Glogauer et al, 2011",[5],73
same,"Metal tolerance, Castilla et al, 2017",[8],110
same,"Metal tolerance, This study",esterase enzyme [4],130
"ClC(Cl)Cl [Chloroform, chloroform]","Effect of solutions on stability, Activity (%) 15% Solution",esterase enzyme [1],97.9 ± 1.4%
same,"Effect of solutions on stability, Activity (%) 30% Solution",esterase enzyme [1],100.2 ± 5.6%
same,"Effect of solutions on activity, Activity (%)",esterase enzyme [2],5.1 ± 0.8%
[Cl-].[Cl-].[Co+2] [CoCl2],Activity (%) (1 mM metal),esterase enzyme [4],112.7 ± 3.4%
same,Activity (%) (5 mM metal),esterase enzyme [4],3.6 ± 1.0%
[Co+2] [Co^2+],"Metal tolerance, Mohamed et al, 2013",[6],104
same,"Metal tolerance, Zhang et al, 2017",[7],85
same,"Metal tolerance, Glogauer et al, 2011",[5],54
same,"Metal tolerance, Castilla et al, 2017",[8],50
same,"Metal tolerance, This study",esterase enzyme [4],113
O=S(=O)([O-])[O-].[Cu+2] [CuSO4],Activity (%) (1 mM metal),esterase enzyme [4]; 1 mM metal,117.5 ± 5%
same,Activity (%) (5 mM metal),esterase enzyme [4]; 5 mM metal,1.4 ± 1.1%
[Cu+2] [Cu^2+],"Metal tolerance, Mohamed et al, 2013",[6],95
same,"Metal tolerance, Zhang et al, 2017",[7],82
same,"Metal tolerance, Castilla et al, 2017",[8],60
same,"Metal tolerance, This study",esterase enzyme [4],118
"CN(C)C=O [DMF, dimethyl formamide]","Effect of solutions on stability, Activity (%) 15% Solution",esterase enzyme [1],121.3 ± 1.6%
same,"Effect of solutions on stability, Activity (%) 30% Solution",esterase enzyme [1],105.3 ± 1.6%
same,"Effect of solutions on activity, Activity (%)",esterase enzyme [2],33.2 ± 7.0%
"C[S+](C)[O-] [DMSO, dimethyl sulphoxide]","Effect of solutions on stability, Activity (%) 15% Solution",esterase enzyme [1],106.1 ± 0.9%
same,"Effect of solutions on stability, Activity (%) 30% Solution",esterase enzyme [1],102.2 ± 4.8%
same,"Effect of solutions on activity, Activity (%)",esterase enzyme [2],92%
"O=C(O)CN(CCN(CC(=O)O)CC(=O)O)CC(=O)O [EDTA, ethylene diamine tetraacetic acid]",Activity (%) (1 mM inh.),esterase enzyme [3]; 1 mM inh.,89.6 ± 1.7%
same,Activity (%) (5 mM inh.),esterase enzyme [3]; 5 mM inh.,66.5 ± 1.2%
"O=C(O)CN(CCOCCOCCN(CC(=O)O)CC(=O)O)CC(=O)O [EGTA, ethylene glycol tetraacetic acid]",Activity (%) (1 mM inh.),esterase enzyme [3],100.2 ± 2.1%
same,Activity (%) (5 mM inh.),esterase enzyme [3],87.6 ± 3.9%
"CCO [Ethanol, ethanol]","Effect of solutions on stability, Activity (%) 15% Solution",esterase enzyme [1],105.9 ± 4.7%
same,"Effect of solutions on stability, Activity (%) 30% Solution",esterase enzyme [1],98.2 ± 0.5%
same,"Effect of solutions on activity, Activity (%)",esterase enzyme [2],45.1 ± 0.3%
